What was measured:
[1] = Cytotoxicity against mouse BV2 cells assessed as reduction of cell viability at IC50 after 24 hrs by MTT assay; type: cell-based; settings: bv-2, 24 h
[2] = system: BV-2; assay: Anti-neuroinflammatory activity against mouse BV2 cells assessed as inhibition of LPS-induced nitric oxide production after 24 hrs by Griess assay; type: functional, cell-based; settings: BV-2, 24 h

With `C=C(C)[C@@H]1CC[C@]2(C(=O)O)CC[C@]3(C)[C@H](CC[C@@H]4[C@@]5(C)CCC(=O)C(C)(C)[C@@H]5CC[C@]43C)[C@@H]12` [BETUNOLIC ACID] the Activity [1] was “Non-toxic” and the IC50 [2] was greater than 100 µM.
For `COc1ccc2c(=O)c(OC)c(-c3cc(OC)c4c(c3)OCO4)oc2c1`, the Activity [1] was “Non-toxic” and the IC50 [2] was greater than 100 µM.
In the case of `CC1(C)C=Cc2cc(C(=O)/C=C/c3ccccc3)c(O)cc2O1` [ISOLONCHOCARPIN], the Activity [1] is reported as “Non-toxic” and the IC50 [2] is reported as greater than 100 µM.
For `COc1cc(OC)cc(-c2cc(=O)c3ccc4occc4c3o2)c1`, the Activity [1] was “Non-toxic” and the IC50 [2] was greater than 100 µM.
With `COc1ccc2c(=O)c(OC)c(-c3ccc4c(c3)OCO4)oc2c1` [DEMETHOXYKANUGIN] the Activity [1] was “Non-toxic” and the IC50 [2] was 14.1 µM.
With `COc1c(-c2ccccc2)oc2c(ccc3occc32)c1=O` [KARANJIN] the Activity [1] was “Non-toxic” and the IC50 [2] was greater than 100 µM.
In the case of `COc1ccc(-c2coc3cc(OCC=C(C)C)ccc3c2=O)cc1`, the Activity [1] is reported as “Non-toxic” and the IC50 [2] is reported as greater than 100 µM.
For `CC1(C)CC[C@]2(C(=O)O)CC[C@]3(C)[C@H](CC[C@@H]4[C@@]5(C)CC[C@H](O)C(C)(C)[C@@H]5CC[C@]43C)[C@H]2[C@H]1O`, the Activity [1] was “Non-toxic” and the IC50 [2] was 22.7 µM.
For `COc1cc(O)cc(-c2oc3c(ccc4occc43)c(=O)c2OC)c1`, the Activity [1] was “Non-toxic” and the IC50 [2] was greater than 100 µM.
With `O=c1c(-c2ccc3c(c2)OCO3)coc2cc(O)ccc12` [PSEUDOBAPTOGENIN] the Activity [1] was “Non-toxic” and the IC50 [2] was greater than 100 µM.
For `COc1ccc(-c2coc3c(O)c(OC)ccc3c2=O)cc1` [RETUSIN 7-METHYL ETHER], the Activity [1] was “Non-toxic” and the IC50 [2] was 50.9 µM.
With `CN1CC[C@@H](O)C[C@H]1C(=O)O` the Activity [1] was “Non-toxic” and the IC50 [2] was greater than 100 µM.
With `COc1ccc(-c2coc3c(OC)c(O)ccc3c2=O)cc1` the Activity [1] was “Non-toxic” and the IC50 [2] was greater than 100 µM.
For `CC1(C)C=Cc2c(ccc(C(=O)/C=C/c3ccccc3)c2O)O1` [LONCHOCARPIN], the Activity [1] was “Non-toxic” and the IC50 [2] was 3.54 µM.
For `COc1ccc(-c2coc3c(O)c(O)ccc3c2=O)cc1O`, the Activity [1] was “Non-toxic” and the IC50 [2] was greater than 100 µM.
In the case of `O=c1cc(-c2ccccc2)oc2c1ccc1occc12` [LANCEOLATIN B], the Activity [1] is reported as “Non-toxic” and the IC50 [2] is reported as 20.6 µM.
In the case of `COc1c(-c2ccc3c(c2)OCO3)oc2c(ccc3occc32)c1=O` [PONGAPIN], the Activity [1] is reported as “Non-toxic” and the IC50 [2] is reported as greater than 100 µM.
For `O=c1cc(-c2ccc3c(c2)OCO3)oc2c1ccc1occc12` [PONGAGLABRONE], the Activity [1] was “Non-toxic” and the IC50 [2] was 45.7 µM.
For `COc1ccc(OC)c(-c2cc(=O)c3ccc4occc4c3o2)c1`, the Activity [1] was “Non-toxic” and the IC50 [2] was 87.7 µM.
For `COc1ccc(-c2coc3cc(O)ccc3c2=O)cc1` [FORMONONETIN], the Activity [1] was “Non-toxic” and the IC50 [2] was greater than 100 µM.
With `COc1cc(OC)c(Cl)c(-c2cc(=O)c3ccc4occc4c3o2)c1Cl` the Activity [1] was “Non-toxic” and the IC50 [2] was greater than 100 µM.
With `COc1ccc2c(=O)c(OC)c(-c3ccc(OC)c(OC)c3)oc2c1` [FISETIN TETRAMETHYL ETHER] the Activity [1] was “Non-toxic” and the IC50 [2] was 28.5 µM.
With `COc1c2ccoc2cc2oc(-c3ccccc3)cc(=O)c12` [PINNATIN] the Activity [1] was “Non-toxic” and the IC50 [2] was greater than 100 µM.
For `COc1c(-c2ccc3c(c2)OCO3)oc2c3c(ccc2c1=O)OC(C)(C)C=C3` [PONGACHROMENE], the Activity [1] was “Non-toxic” and the IC50 [2] was greater than 100 µM.
In the case of `COc1c2ccoc2cc2oc(-c3ccc4c(c3)OCO4)cc(=O)c12`, the Activity [1] is reported as “Non-toxic” and the IC50 [2] is reported as greater than 100 µM.
For `CC1(C)C=Cc2c(ccc(C(=O)/C=C/c3ccc4c(c3)OCO4)c2O)O1`, the Activity [1] was “Non-toxic” and the IC50 [2] was 6.56 µM.
In the case of `COc1cc2occc2c2oc(-c3ccccc3)cc(=O)c12`, the Activity [1] is reported as “Non-toxic” and the IC50 [2] is reported as 5.98 µM.
With `COc1cccc(-c2cc(=O)c3ccc4occc4c3o2)c1` the Activity [1] was “Non-toxic” and the IC50 [2] was greater than 100 µM.
With `CC1(C)C=Cc2c(ccc3c2O[C@H](c2ccc4c(c2)OCO4)CC3=O)O1` the Activity [1] was “Non-toxic” and the IC50 [2] was 78.8 µM.
